Legend:
[1] = 101.33 kPa, Liquid, Hot wire method
[2] = molar heat capacity at constant pressure; conditions: 101.33 kPa, Liquid, Small sample (50 mg) DSC

CCCC[N+]1(C)CCCC1.O=S(=O)([N-]S(=O)(=O)C(F)(F)F)C(F)(F)F
[1]
Conditions | thermal conductivity [W/m/K]
293 K | 0.118
303 K | 0.118
313 K | 0.118
323 K | 0.117
333 K | 0.117

CCCCCCn1cc[n+](C)c1.F[B-](F)(F)F [1-hexyl-3-methylimidazolium tetrafluoroborate]
[1]
Conditions | thermal conductivity [W/m/K]
293 K | 0.158
303 K | 0.157
313 K | 0.156
323 K | 0.155
333 K | 0.153
343 K | 0.152
353 K | 0.151

CCCCn1cc[n+](C)c1.F[B-](F)(F)F [1-butyl-3-methylimidazolium tetrafluoroborate]
[2]
Conditions | molar heat capacity at constant pressure [J/K/mol]
308.16 K | 367.26
313.16 K | 367.64
318.16 K | 370.39
323.16 K | 371.89
328.22 K | 373.73
333.22 K | 375.92
338.19 K | 377.15
343.18 K | 380.16
348.25 K | 382.69
353.18 K | 384.8
358.25 K | 386.99
363.18 K | 389.18
368.17 K | 390
373.21 K | 390.04
378.2 K | 392.18
383.17 K | 393.64
388.2 K | 395.28
393.17 K | 396.49
398.2 K | 397.93
403.2 K | 400.74
408.16 K | 403.88
413.19 K | 403.49
418.19 K | 404.98
423.22 K | 406.62

CCCCn1cc[n+](C)c1.F[P-](F)(F)(F)(F)F [1-butyl-3-methylimidazolium hexafluorophosphate]
Conditions | molar heat capacity at constant pressure [J/K/mol] | thermal conductivity [W/m/K]
[1], 293 K | – | 0.145
[1], 303 K | – | 0.145
[1], 313 K | – | 0.145
[1], 323 K | – | 0.144
[1], 333 K | – | 0.143
[1], 343 K | – | 0.143
[1], 353 K | – | 0.143
[2], 308.16 K | 410.64 | –
[2], 313.16 K | 413.48 | –
[2], 318.16 K | 417.74 | –
[2], 323.16 K | 422.01 | –
[2], 328.22 K | 423.43 | –
[2], 333.22 K | 426.27 | –
[2], 338.19 K | 429.11 | –
[2], 343.18 K | 433.37 | –
[2], 348.25 K | 436.22 | –
[2], 353.18 K | 439.06 | –
[2], 358.25 K | 441.9 | –
[2], 363.18 K | 443.32 | –
[2], 368.17 K | 444.74 | –
[2], 373.21 K | 447.58 | –
[2], 378.2 K | 450.43 | –
[2], 383.17 K | 454.69 | –
[2], 388.2 K | 457.53 | –
[2], 393.17 K | 460.37 | –
[2], 398.2 K | 463.21 | –
[2], 403.2 K | 468.9 | –
[2], 408.16 K | 470.32 | –
[2], 413.19 K | 471.74 | –
[2], 418.19 K | 473.16 | –
[2], 423.22 K | 474.58 | –

— the NIST ThermoML archive (doi:10.1021/je900648p)
